PubChem BioAssay (NCI)
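Step 1: Grow cells in 96-well plates. Step 2: Expose to compound for 48 hours at 5 concentrations. Step 3: Interpolate endpoints linearly; if unreached, use highest concentration. GI50 is the concentration that inhibits growth by half. TGI marks complete inhibition of growth.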

What was measured:
Assay in all cases: DTP human tumour cell line panel, 48 h; in the data active = GI50 below about 0.43 µM; inactive = the rest
786-0 renal = test system: 786-0 renal
A498 renal = test system: A498 renal
A549 NSCLC = test system: A549 NSCLC
ACHN renal = test system: ACHN renal
BT-549 breast = test system: BT-549 breast
CAKI-1 renal = test system: CAKI-1 renal
CCRF-CEM leukemia = test system: CCRF-CEM leukemia
COLO 205 colon = test system: COLO 205 colon
DU-145 prostate = test system: DU-145 prostate
EKVX NSCLC = test system: EKVX NSCLC
HCC-2998 colon = test system: HCC-2998 colon
HCT-116 colon = test system: HCT-116 colon
HCT-15 colon = test system: HCT-15 colon
HL-60(TB) leukemia = test system: HL-60(TB) leukemia
HOP-62 NSCLC = test system: HOP-62 NSCLC
HOP-92 NSCLC = test system: HOP-92 NSCLC
HS 578T breast = test system: HS 578T breast
HT29 colon = test system: HT29 colon
IGROV1 ovarian = test system: IGROV1 ovarian
KM12 colon = test system: KM12 colon
LOX IMVI melanoma = test system: LOX IMVI melanoma
M14 melanoma = test system: M14 melanoma
MALME-3M melanoma = test system: MALME-3M melanoma
MCF7 breast = test system: MCF7 breast
MDA-MB-231 breast = test system: MDA-MB-231 breast
MDA-MB-435 = test system: MDA-MB-435
MDA-N = test system: MDA-N
MOLT-4 leukemia = test system: MOLT-4 leukemia
NCI-H226 lung = test system: NCI-H226 lung
NCI-H23 lung = test system: NCI-H23 lung
NCI-H460 lung = test system: NCI-H460 lung
NCI-H522 lung = test system: NCI-H522 lung
NCI/ADR-RES ovarian = test system: NCI/ADR-RES ovarian
OVCAR-3 ovarian = test system: OVCAR-3 ovarian
OVCAR-4 ovarian = test system: OVCAR-4 ovarian
OVCAR-5 ovarian = test system: OVCAR-5 ovarian
OVCAR-8 ovarian = test system: OVCAR-8 ovarian
PC-3 prostate = test system: PC-3 prostate
RXF 393 renal = test system: RXF 393 renal
SF-268 CNS = test system: SF-268 CNS
SF-295 CNS = test system: SF-295 CNS
SF-539 CNS = test system: SF-539 CNS
SK-MEL-2 melanoma = test system: SK-MEL-2 melanoma
SK-MEL-28 melanoma = test system: SK-MEL-28 melanoma
SK-MEL-5 melanoma = test system: SK-MEL-5 melanoma
SK-OV-3 ovarian = test system: SK-OV-3 ovarian
SN12C renal = test system: SN12C renal
SNB-19 CNS = test system: SNB-19 CNS
SNB-75 CNS = test system: SNB-75 CNS
SR leukemia = test system: SR leukemia
SW-620 colon = test system: SW-620 colon
T-47D breast = test system: T-47D breast
TK-10 renal = test system: TK-10 renal
U251 CNS = test system: U251 CNS
UACC-257 melanoma = test system: UACC-257 melanoma
UACC-62 melanoma = test system: UACC-62 melanoma
UO-31 renal = test system: UO-31 renal
K-562 leukemia = test system: K-562 leukemia
RPMI-8226 leukemia = test system: RPMI-8226 leukemia
DMS 114 small cell lung = test system: DMS 114 small cell lung
DMS 273 small cell lung = test system: DMS 273 small cell lung
KM20L2 colon = test system: KM20L2 colon
LXFL 529 NSCLC = test system: LXFL 529 NSCLC
M19-MEL melanoma = test system: M19-MEL melanoma
SNB-78 CNS = test system: SNB-78 CNS
XF 498 CNS = test system: XF 498 CNS

NCCN.O=C([O-])CN1CCOCC1.[OH-].[Pt+4]
> 100 µM: TGI (786-0 renal) | TGI (A498 renal) | TGI (A549 NSCLC) | TGI (ACHN renal) | TGI (BT-549 breast) | TGI (CAKI-1 renal) | TGI (CCRF-CEM leukemia) | TGI (COLO 205 colon) | TGI (DU-145 prostate) | TGI (EKVX NSCLC) | TGI (HCC-2998 colon) | TGI (HCT-116 colon) | TGI (HCT-15 colon) | TGI (HL-60(TB) leukemia) | TGI (HOP-62 NSCLC) | TGI (HOP-92 NSCLC) | TGI (HS 578T breast) | TGI (HT29 colon) | TGI (IGROV1 ovarian) | TGI (KM12 colon) | TGI (LOX IMVI melanoma) | TGI (M14 melanoma) | TGI (MALME-3M melanoma) | TGI (MCF7 breast) | TGI (MDA-MB-231 breast) | TGI (MDA-MB-435) | TGI (MDA-N) | TGI (MOLT-4 leukemia) | TGI (NCI-H226 lung) | TGI (NCI-H23 lung) | TGI (NCI-H460 lung) | TGI (NCI-H522 lung) | TGI (NCI/ADR-RES ovarian) | TGI (OVCAR-3 ovarian) | TGI (OVCAR-4 ovarian) | TGI (OVCAR-5 ovarian) | TGI (OVCAR-8 ovarian) | TGI (PC-3 prostate) | TGI (RXF 393 renal) | TGI (SF-268 CNS) | TGI (SF-295 CNS) | TGI (SF-539 CNS) | TGI (SK-MEL-2 melanoma) | TGI (SK-MEL-28 melanoma) | TGI (SK-MEL-5 melanoma) | TGI (SK-OV-3 ovarian) | TGI (SN12C renal) | TGI (SNB-19 CNS) | TGI (SNB-75 CNS) | TGI (SR leukemia) | TGI (SW-620 colon) | TGI (T-47D breast) | TGI (TK-10 renal) | TGI (U251 CNS) | TGI (UACC-257 melanoma) | TGI (UACC-62 melanoma) | TGI (UO-31 renal)
inactive: GI50 (786-0 renal) > 100 µM | GI50 (A498 renal) > 100 µM | GI50 (A549 NSCLC) > 100 µM | GI50 (ACHN renal) > 100 µM | GI50 (BT-549 breast) > 100 µM | GI50 (CAKI-1 renal) > 100 µM | GI50 (CCRF-CEM leukemia) > 100 µM | GI50 (COLO 205 colon) > 100 µM | GI50 (DU-145 prostate) > 100 µM | GI50 (EKVX NSCLC) > 100 µM | GI50 (HCC-2998 colon) > 100 µM | GI50 (HCT-116 colon) > 100 µM | GI50 (HCT-15 colon) > 100 µM | GI50 (HL-60(TB) leukemia) 15.8 µM | GI50 (HOP-62 NSCLC) > 100 µM | GI50 (HOP-92 NSCLC) > 100 µM | GI50 (HS 578T breast) > 100 µM | GI50 (HT29 colon) > 100 µM | GI50 (IGROV1 ovarian) > 100 µM | GI50 (KM12 colon) > 100 µM | GI50 (LOX IMVI melanoma) > 100 µM | GI50 (M14 melanoma) > 100 µM | GI50 (MALME-3M melanoma) > 100 µM | GI50 (MCF7 breast) > 100 µM | GI50 (MDA-MB-231 breast) > 100 µM | GI50 (MDA-MB-435) > 100 µM | GI50 (MDA-N) > 100 µM | GI50 (MOLT-4 leukemia) > 100 µM | GI50 (NCI-H226 lung) > 100 µM | GI50 (NCI-H23 lung) 60.9 µM | GI50 (NCI-H460 lung) 37.5 µM | GI50 (NCI-H522 lung) > 100 µM | GI50 (NCI/ADR-RES ovarian) > 100 µM | GI50 (OVCAR-3 ovarian) > 100 µM | GI50 (OVCAR-4 ovarian) > 100 µM | GI50 (OVCAR-5 ovarian) > 100 µM | GI50 (OVCAR-8 ovarian) > 100 µM | GI50 (PC-3 prostate) > 100 µM | GI50 (RXF 393 renal) > 100 µM | GI50 (SF-268 CNS) > 100 µM | GI50 (SF-295 CNS) > 100 µM | GI50 (SF-539 CNS) > 100 µM | GI50 (SK-MEL-2 melanoma) > 100 µM | GI50 (SK-MEL-28 melanoma) > 100 µM | GI50 (SK-MEL-5 melanoma) > 100 µM | GI50 (SK-OV-3 ovarian) > 100 µM | GI50 (SN12C renal) > 100 µM | GI50 (SNB-19 CNS) > 100 µM | GI50 (SNB-75 CNS) > 100 µM | GI50 (SR leukemia) > 100 µM | GI50 (SW-620 colon) > 100 µM | GI50 (T-47D breast) > 100 µM | GI50 (TK-10 renal) > 100 µM | GI50 (U251 CNS) > 100 µM | GI50 (UACC-257 melanoma) > 100 µM | GI50 (UACC-62 melanoma) > 100 µM | GI50 (UO-31 renal) > 100 µM

O=C(OCCNC(=O)N1CC1)OCCNC(=O)N1CC1
> 10 µM: TGI (786-0 renal) | TGI (A498 renal) | TGI (A549 NSCLC) | TGI (ACHN renal) | TGI (BT-549 breast) | TGI (CAKI-1 renal) | TGI (CCRF-CEM leukemia) | TGI (COLO 205 colon) | TGI (DU-145 prostate) | TGI (EKVX NSCLC) | TGI (HCC-2998 colon) | TGI (HCT-116 colon) | TGI (HCT-15 colon) | TGI (HL-60(TB) leukemia) | TGI (HOP-62 NSCLC) | TGI (HOP-92 NSCLC) | TGI (HS 578T breast) | TGI (HT29 colon) | TGI (IGROV1 ovarian) | TGI (K-562 leukemia) | TGI (KM12 colon) | TGI (LOX IMVI melanoma) | TGI (M14 melanoma) | TGI (MALME-3M melanoma) | TGI (MCF7 breast) | TGI (MDA-MB-231 breast) | TGI (MDA-MB-435) | TGI (MDA-N) | TGI (MOLT-4 leukemia) | TGI (NCI-H226 lung) | TGI (NCI-H23 lung) | TGI (NCI-H460 lung) | TGI (NCI-H522 lung) | TGI (NCI/ADR-RES ovarian) | TGI (OVCAR-3 ovarian) | TGI (OVCAR-4 ovarian) | TGI (OVCAR-5 ovarian) | TGI (OVCAR-8 ovarian) | TGI (PC-3 prostate) | TGI (RPMI-8226 leukemia) | TGI (RXF 393 renal) | TGI (SF-268 CNS) | TGI (SF-295 CNS) | TGI (SF-539 CNS) | TGI (SK-MEL-2 melanoma) | TGI (SK-MEL-28 melanoma) | TGI (SK-MEL-5 melanoma) | TGI (SK-OV-3 ovarian) | TGI (SN12C renal) | TGI (SNB-19 CNS) | TGI (SNB-75 CNS) | TGI (SR leukemia) | TGI (SW-620 colon) | TGI (T-47D breast) | TGI (TK-10 renal) | TGI (U251 CNS) | TGI (UACC-257 melanoma) | TGI (UACC-62 melanoma) | TGI (UO-31 renal)

Nc1nc(-c2ccco2)cc(-c2ccc(CO)o2)n1
> 100 µM: TGI (786-0 renal) | TGI (A549 NSCLC) | TGI (ACHN renal) | TGI (CCRF-CEM leukemia) | TGI (COLO 205 colon) | TGI (DMS 114 small cell lung) | TGI (DMS 273 small cell lung) | TGI (EKVX NSCLC) | TGI (HCT-116 colon) | TGI (HCT-15 colon) | TGI (HL-60(TB) leukemia) | TGI (HOP-62 NSCLC) | TGI (HT29 colon) | TGI (IGROV1 ovarian) | TGI (K-562 leukemia) | TGI (KM12 colon) | TGI (KM20L2 colon) | TGI (LOX IMVI melanoma) | TGI (LXFL 529 NSCLC) | TGI (M14 melanoma) | TGI (M19-MEL melanoma) | TGI (MALME-3M melanoma) | TGI (MOLT-4 leukemia) | TGI (NCI-H226 lung) | TGI (NCI-H23 lung) | TGI (NCI-H460 lung) | TGI (NCI-H522 lung) | TGI (OVCAR-3 ovarian) | TGI (OVCAR-4 ovarian) | TGI (OVCAR-5 ovarian) | TGI (OVCAR-8 ovarian) | TGI (RPMI-8226 leukemia) | TGI (RXF 393 renal) | TGI (SF-268 CNS) | TGI (SF-295 CNS) | TGI (SF-539 CNS) | TGI (SK-MEL-2 melanoma) | TGI (SK-MEL-28 melanoma) | TGI (SK-MEL-5 melanoma) | TGI (SN12C renal) | TGI (SNB-19 CNS) | TGI (SNB-75 CNS) | TGI (SNB-78 CNS) | TGI (SR leukemia) | TGI (SW-620 colon) | TGI (TK-10 renal) | TGI (UACC-62 melanoma) | TGI (UO-31 renal) | TGI (XF 498 CNS)
